Reference: ChEMBL document CHEMBL5344425, “Discovery of 5-(Pyrimidin-2-ylamino)-1H-indole-2-carboxamide Derivatives as Nur77 Modulators with Selective and Potent Activity Against Triple-Negative Breast Cancer” (J Med Chem, 2023)
The source made the active and inactive calls. The rule behind the calls is not given here.

Legend:
[1] = test system: HCT-116; assay: Antiproliferative activity against human HCT-116 cells assessed as inhibition of cell growth measured after 24 hrs by MTT assay; type: functional, cell-based; conditions: HCT-116, 24 h
[2] = biological target: T1, Nuclear receptor subfamily 4immunitygroup A member 1 (Homo sapiens, UniProt P22736); assay: Binding affinity to wild type Nur77 ligand binding domain (unknown origin) assessed as decrease in fluorescence intensity incubated for 30 secs by fluorescence spectrophotometric analysis
[3] = biological target: T1, Nuclear receptor subfamily 4immunitygroup A member 1; assay: Antagonist activity at Nur77 ligand binding domain (unknown origin) transfected in HEK293T cells cotransfected with pG5-Luc assessed as inhibition of receptor transcriptional activity measured after 12 hrs by luciferase reporter gene assay; type: cell-based; conditions: filed as antagonist, dose 0.5-2 µM
[4] = biological target: T2, Retinoic acid receptor RXR-alpha (Homo sapiens) (UniProt P19793); assay: Antagonist activity at RXRalpha (unknown origin) transfected in HEK293T cells cotransfected with pG5-Luc assessed as inhibition of receptor transcriptional activity at 2 uM measured after 12 hrs by luciferase reporter gene assay; type: cell-based
T2 sequence (whole entry): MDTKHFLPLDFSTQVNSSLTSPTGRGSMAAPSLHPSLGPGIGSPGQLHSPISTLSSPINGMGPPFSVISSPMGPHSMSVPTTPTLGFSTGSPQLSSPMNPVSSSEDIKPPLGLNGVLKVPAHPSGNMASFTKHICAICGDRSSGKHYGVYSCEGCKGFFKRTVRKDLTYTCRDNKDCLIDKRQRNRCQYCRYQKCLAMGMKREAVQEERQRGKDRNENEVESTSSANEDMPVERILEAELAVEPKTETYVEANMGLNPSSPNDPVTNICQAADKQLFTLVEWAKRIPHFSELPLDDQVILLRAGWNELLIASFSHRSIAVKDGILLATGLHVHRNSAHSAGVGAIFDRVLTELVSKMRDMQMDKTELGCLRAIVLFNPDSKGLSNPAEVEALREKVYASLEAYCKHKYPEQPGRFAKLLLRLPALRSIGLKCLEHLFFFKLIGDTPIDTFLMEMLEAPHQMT

[5] = biological target: T3, Peroxisome proliferator-activated receptor gamma (Homo sapiens) (UniProt P37231); assay: Antagonist activity at PPARgamma ligand binding domain (unknown origin) transfected in HEK293T cells cotransfected with pG5-Luc assessed as inhibition of receptor transcriptional activity at 2 uM measured after 12 hrs by luciferase reporter gene assay; type: cell-based
T3 sequence (whole entry): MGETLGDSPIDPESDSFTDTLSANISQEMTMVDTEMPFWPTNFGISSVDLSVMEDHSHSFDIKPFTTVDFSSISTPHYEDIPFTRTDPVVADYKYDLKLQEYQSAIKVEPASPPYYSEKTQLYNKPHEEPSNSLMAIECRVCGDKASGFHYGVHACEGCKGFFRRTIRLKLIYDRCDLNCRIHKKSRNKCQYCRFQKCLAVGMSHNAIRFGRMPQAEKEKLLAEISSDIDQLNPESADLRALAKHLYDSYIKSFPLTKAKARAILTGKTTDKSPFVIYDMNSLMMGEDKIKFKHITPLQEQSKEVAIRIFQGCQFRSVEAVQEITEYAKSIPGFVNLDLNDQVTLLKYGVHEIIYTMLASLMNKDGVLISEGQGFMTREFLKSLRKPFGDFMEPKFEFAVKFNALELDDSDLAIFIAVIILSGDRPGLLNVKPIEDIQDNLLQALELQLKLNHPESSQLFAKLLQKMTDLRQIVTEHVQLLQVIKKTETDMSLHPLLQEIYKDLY

[6] = test system: MDA-MB-231; assay: Induction of apoptosis in human MDA-MB-231 cells transfected with Myc-Nur77 assessed as PARP cleavage at 2 to 5 uM measured after 6 hrs by western blot analysis; type: functional, cell-based; conditions: dose 2-5 µM
[7] = test system: MDA-MB-231; assay: Induction of apoptosis in human MDA-MB-231 cells assessed as proportion of early apoptotic cells at 0.32 uM measured after 5 hrs by AnnexinV-FITC/PI staining based flow cytometry (reference value: 3.35%); type: functional
[8] = test system: MDA-MB-231; assay: Induction of apoptosis in human MDA-MB-231 cells assessed as proportion of early apoptotic cells at 0.63 uM measured after 5 hrs by AnnexinV-FITC/PI staining based flow cytometry (reference value: 3.35%); type: functional
[9] = test system: MDA-MB-231; assay: Induction of apoptosis in human MDA-MB-231 cells assessed as proportion of early apoptotic cells at 1.25 uM measured after 5 hrs by AnnexinV-FITC/PI staining based flow cytometry (reference value: 3.35%); type: functional
[10] = test system: MDA-MB-231; assay: Induction of apoptosis in human MDA-MB-231 cells assessed as proportion of early apoptotic cells at 2.5 uM measured after 5 hrs by AnnexinV-FITC/PI staining based flow cytometry (reference value: 3.35%); type: functional
[11] = test system: MDA-MB-231; assay: Induction of apoptosis in human MDA-MB-231 cells transfected with ctr siRNA assessed as late apoptotic cells at 1 uM measured after 6 hrs by AnnexinV-FITC/PI staining based flow cytometry (reference value: 3.97%); type: functional
[12] = test system: MDA-MB-231; assay: Induction of apoptosis in human MDA-MB-231 cells transfected with Nur77 siRNA assessed as early apoptotic cells at 2 uM measured after 6 hrs by AnnexinV-FITC/PI staining based flow cytometry (reference value: 1.88%); type: functional
[13] = test system: MDA-MB-231; assay: Induction of apoptosis in human MDA-MB-231 cells transfected with Nur77 siRNA assessed as late apoptotic cells at 2 uM measured after 6 hrs by AnnexinV-FITC/PI staining based flow cytometry (reference value: 3.97%); type: functional
[14] = test system: MDA-MB-231; assay: Induction of apoptosis in human MDA-MB-231 cells transfected with ctr siRNA assessed as loss of mitochondrial membrane potential at 1 uM measured after 6 hrs by JC-1 staining based flow cytometry (reference value: 13.93%); type: functional
[15] = test system: MDA-MB-231; assay: Induction of apoptosis in human MDA-MB-231 cells transfected with ctr siRNA assessed as loss of mitochondrial membrane potential at 2 uM measured after 6 hrs by JC-1 staining based flow cytometry (reference value: 13.93%); type: functional
[16] = test system: MDA-MB-231; assay: Induction of apoptosis in human MDA-MB-231 cells transfected with Nur77 siRNA assessed as loss of mitochondrial membrane potential at 1 uM measured after 6 hrs by JC-1 staining based flow cytometry (reference value: 6.1%); type: functional
[17] = test system: MDA-MB-231; assay: Induction of apoptosis in human MDA-MB-231 cells assessed as PARP cleavage at 2.5 uM pretreated with PI3K and autophagy inhibitor, Wortmannin for 4 hrs followed by compound addition and measured after 6 hrs by western blot analysis; type: functional, cell-based
[18] = test system: MDA-MB-231; assay: Induction of apoptosis in human MDA-MB-231 cells assessed as increase in Tunel-488 […] at 1 uM measured after 6 hrs by confocal microscopy; type: functional, cell-based
[19] = Toxicity in Zebra fish AB embryo assessed as induction of morphological abnormalities at 1.25 uM measured after 24 to 72 hrs; design: species or system Danio rerio; conditions: zebrafish, time 24-72 hrs
[20] = test system: MDA-MB-231; assay: Antitumor activity against human MDA-MB-231 cells xenografted in BALB/c mouse assessed as increase in cleaved caspase-3 expression in tumor at 10 mg/kg, ip qd for 16 days by immunohistochemical staining based analysis; type: functional, organism-based; conditions: time 16.0 day
[21] = Toxicity in BALB/c mouse xenografted with human MDA-MB-231 cells assessed as morphological changes in kidney at 10 mg/kg, ip qd for 16 days by Hematoxylin-Eosin staining based analysis; type: organism-based; conditions: in vivo, 384 h, time 16 day

T1 sequence (P22736 whole entry, the tested form may be a part): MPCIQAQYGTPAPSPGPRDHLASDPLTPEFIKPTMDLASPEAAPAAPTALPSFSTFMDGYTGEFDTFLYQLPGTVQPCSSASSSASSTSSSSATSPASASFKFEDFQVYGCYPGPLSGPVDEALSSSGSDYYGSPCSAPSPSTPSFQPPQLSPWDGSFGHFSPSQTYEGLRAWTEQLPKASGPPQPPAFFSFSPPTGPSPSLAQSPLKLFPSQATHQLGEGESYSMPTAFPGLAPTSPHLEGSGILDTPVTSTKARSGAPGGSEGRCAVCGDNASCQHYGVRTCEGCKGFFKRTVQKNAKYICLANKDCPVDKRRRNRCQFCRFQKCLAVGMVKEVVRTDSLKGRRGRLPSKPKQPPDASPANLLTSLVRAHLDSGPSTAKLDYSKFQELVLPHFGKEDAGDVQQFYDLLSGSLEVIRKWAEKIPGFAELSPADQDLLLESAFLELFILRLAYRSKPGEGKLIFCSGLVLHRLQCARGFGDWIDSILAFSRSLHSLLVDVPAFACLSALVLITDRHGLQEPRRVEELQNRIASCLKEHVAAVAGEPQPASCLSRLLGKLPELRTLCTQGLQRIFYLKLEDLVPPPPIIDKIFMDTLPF

Structure (SMILES): CCN(CC)CCCNC(=O)c1cc2cc(Nc3nccc(-c4sc(NC)nc4C)n3)ccc2[nH]1
- IC50 [1]: 9.84 µM
- Kd [2]: 0.154 µM
- inhibition [3]: Dose-Dependent Effect
- inhibition [4]: inactive
- inhibition [5]: inactive
- Activity [6]: Active
- Activity [7]: 9.81%
- Activity [8]: 20.22%
- Activity [9]: 35.95%
- Activity [10]: 38.14%
- Activity [11]: 8.23%
- Activity [12]: 2.5%
- Activity [13]: 2.36%
- Activity [14]: 35.26%
- Activity [15]: 68.69%
- Activity [16]: 8.57%
- Activity [17]: Active
- Activity [18]: Active
- Activity [19]: Toxic
- Activity [20]: Active
- Activity [21]: Non-Toxic
